Results taken from the NIST ThermoML archive (doi:10.1021/je060271a).
Values joined by “and” are separate entries in the source; they are usually repeats but may differ in a detail not shown here. Equal values may be shown once. Numbers after ± are expanded uncertainties.

Details: 323.16 K, Liquid, Vibrating tube method

For `CCCCCC(=O)OCC(COC(=O)CCCCC)(COC(=O)CCCCC)COC(=O)CCCCC` [pentaerythritol tetrahexanoate], the mass density (1057.9 kPa) was 973.4 ± 1.2 kg/m3, the mass density (1108.4 kPa) was 973.5 ± 1.2 kg/m3 and the mass density (1111.9 kPa) was 973.6 ± 1.2 kg/m3. For the same compound, the mass density (1116.1 kPa) was 973.5 ± 1.2 kg/m3, the mass density (1120.2 kPa) was 973.4 ± 1.2 kg/m3 and the mass density (1124.1 kPa) was 973.4 ± 1.2 kg/m3. For the same compound, the mass density (1169 kPa) was 973.6 ± 1.2 kg/m3, the mass density (1173 kPa) was 973.5 ± 1.2 kg/m3 and the mass density (1178.4 kPa) was 973.6 ± 1.2 kg/m3. The mass density (1182.7 kPa) was 973.5 ± 1.2 kg/m3, the mass density (1188.3 kPa) was 973.4 ± 1.2 kg/m3 and the mass density (1192.5 kPa) was 973.4 ± 1.2 kg/m3. It also gave a mass density (1197 kPa) of 973.5 ± 1.2 kg/m3, a mass density (1201.3 kPa) of 973.4 ± 1.2 kg/m3 and a mass density (1206.2 kPa) of 973.5 ± 1.2 kg/m3. The mass density (1211.4 kPa) was 973.6 ± 1.2 kg/m3, the mass density (1215.4 kPa) was 973.6 ± 1.2 kg/m3 and the mass density (1219.4 kPa) was 973.6 ± 1.2 kg/m3. For the same compound, the mass density (1224.6 kPa) was 973.5 ± 1.2 kg/m3, the mass density (1228.9 kPa) was 973.6 ± 1.2 kg/m3 and the mass density (1234 kPa) was 973.5 ± 1.2 kg/m3. The mass density (1239.2 kPa) was 973.4 ± 1.2 kg/m3, the mass density (1336.1 kPa) was 973.5 ± 1.2 kg/m3 and the mass density (1340.9 kPa) was 973.6 ± 1.2 kg/m3. For the same compound, the mass density (1346.8 kPa) was 973.6 ± 1.2 kg/m3, the mass density (1352 kPa) was 973.7 ± 1.2 kg/m3 and the mass density (1357.4 kPa) was 973.6 ± 1.2 kg/m3. The mass density (1362.4 kPa) was 973.6 ± 1.2 kg/m3, the mass density (1368 kPa) was 973.6 ± 1.2 kg/m3 and the mass density (1372.9 kPa) was 973.7 ± 1.2 kg/m3. The mass density (1383.8 kPa) was 973.7 ± 1.2 kg/m3, the mass density (1389.5 kPa) was 973.7 ± 1.2 kg/m3 and the mass density (1395.4 kPa) was 973.6 ± 1.2 kg/m3. For the same compound, the mass density (1400.6 kPa) was 973.7 ± 1.2 kg/m3, the mass density (1405.7 kPa) was 973.7 ± 1.2 kg/m3 and the mass density (1542.7 kPa) was 973.7 ± 1.2 kg/m3. For the same compound, the mass density (1548.7 kPa) was 973.7 ± 1.2 kg/m3, the mass density (1555.9 kPa) was 973.7 ± 1.2 kg/m3 and the mass density (1561.4 kPa) was 973.8 ± 1.2 kg/m3. The mass density (1568.9 kPa) was 973.8 ± 1.2 kg/m3, the mass density (1574.8 kPa) was 973.8 ± 1.2 kg/m3 and the mass density (1580.3 kPa) was 973.9 ± 1.2 kg/m3. For the same compound, the mass density (1587.3 kPa) was 973.9 ± 1.2 kg/m3, the mass density (1592.8 kPa) was 974 ± 1.2 kg/m3 and the mass density (1784.1 kPa) was 973.9 ± 1.2 kg/m3. It also gave a mass density (1792.4 kPa) of 974 ± 1.2 kg/m3, a mass density (1799.4 kPa) of 973.9 ± 1.2 kg/m3 and a mass density (1808.1 kPa) of 974 ± 1.2 kg/m3. For the same compound, the mass density (1815.2 kPa) was 974 ± 1.2 kg/m3, the mass density (1823.9 kPa) was 974 ± 1.2 kg/m3 and the mass density (1831.3 kPa) was 974 ± 1.2 kg/m3. It also gave a mass density (1839.8 kPa) of 974 ± 1.2 kg/m3, a mass density (1848.7 kPa) of 974 ± 1.2 kg/m3 and a mass density (1856.1 kPa) of 973.9 ± 1.2 kg/m3. For the same compound, the mass density (1864.5 kPa) was 974 ± 1.2 kg/m3, the mass density (1872.1 kPa) was 974 ± 1.2 kg/m3 and the mass density (1879.9 kPa) was 973.9 ± 1.2 kg/m3. It also gave a mass density (1889.3 kPa) of 974 ± 1.2 kg/m3, a mass density (1998.3 kPa) of 974 ± 1.2 kg/m3 and a mass density (2007.3 kPa) of 974 ± 1.2 kg/m3. It also gave a mass density (2015.3 kPa) of 974.1 ± 1.2 kg/m3, a mass density (2024.8 kPa) of 974.2 ± 1.2 kg/m3 and a mass density (2032.8 kPa) of 974.2 ± 1.2 kg/m3. The mass density (2042.2 kPa) was 974.1 ± 1.2 kg/m3, the mass density (2051.9 kPa) was 974.2 ± 1.2 kg/m3 and the mass density (2078.2 kPa) was 974.2 ± 1.2 kg/m3. For the same compound, the mass density (2086.8 kPa) was 974.2 ± 1.2 kg/m3, the mass density (2097.3 kPa) was 974.1 ± 1.2 kg/m3 and the mass density (2105.3 kPa) was 974.2 ± 1.2 kg/m3. It also gave a mass density (2275.9 kPa) of 974.3 ± 1.2 kg/m3, a mass density (2285.6 kPa) of 974.2 ± 1.2 kg/m3 and a mass density (2297.5 kPa) of 974.3 ± 1.2 kg/m3. It also gave a mass density (2309.2 kPa) of 974.3 ± 1.2 kg/m3, a mass density (2319 kPa) of 974.3 ± 1.2 kg/m3 and a mass density (2329.5 kPa) of 974.3 ± 1.2 kg/m3. For the same compound, the mass density (2339.5 kPa) was 974.4 ± 1.2 kg/m3, the mass density (2350.8 kPa) was 974.3 ± 1.2 kg/m3 and the mass density (2360.3 kPa) was 974.3 ± 1.2 kg/m3. It also gave a mass density (2372.6 kPa) of 974.1 ± 1.2 kg/m3, a mass density (2382.7 kPa) of 974.2 ± 1.2 kg/m3 and a mass density (2394.7 kPa) of 974.5 ± 1.2 kg/m3. It also gave a mass density (2404.4 kPa) of 974.2 ± 1.2 kg/m3, a mass density (2416.5 kPa) of 974.4 ± 1.2 kg/m3 and a mass density (2428.5 kPa) of 974.4 ± 1.2 kg/m3. The mass density (2438.7 kPa) was 974.4 ± 1.2 kg/m3, the mass density (2448.6 kPa) was 974.5 ± 1.2 kg/m3 and the mass density (2460.9 kPa) was 974.4 ± 1.2 kg/m3. It also gave a mass density (2471.7 kPa) of 974.4 ± 1.2 kg/m3, a mass density (2484.5 kPa) of 974.5 ± 1.2 kg/m3 and a mass density (3633.2 kPa) of 975.3 ± 1.2 kg/m3. The mass density (3649.5 kPa) was 975.3 ± 1.2 kg/m3, the mass density (3663.4 kPa) was 975.2 ± 1.2 kg/m3 and the mass density (3679.8 kPa) was 975.3 ± 1.2 kg/m3. For the same compound, the mass density (3696.6 kPa) was 975.2 ± 1.2 kg/m3, the mass density (3710.8 kPa) was 975.3 ± 1.2 kg/m3 and the mass density (3725 kPa) was 975.2 ± 1.2 kg/m3. For the same compound, the mass density (3741.8 kPa) was 975.2 ± 1.2 kg/m3, the mass density (3756 kPa) was 975.3 ± 1.2 kg/m3 and the mass density (3773.4 kPa) was 975.3 ± 1.2 kg/m3. It also gave a mass density (3790.9 kPa) of 975.4 ± 1.2 kg/m3, a mass density (9966.7 kPa) of 979.5 ± 1.2 kg/m3 and a mass density (9977.9 kPa) of 979.5 ± 1.2 kg/m3. The mass density (10002 kPa) was 979.7 ± 1.2 kg/m3, the mass density (10012 kPa) was 979.7 ± 1.2 kg/m3 and the mass density (10025 kPa) was 979.6 ± 1.2 kg/m3. It also gave a mass density (10037 kPa) of 979.6 ± 1.2 kg/m3, a mass density (10040 kPa) of 979.6 ± 1.2 kg/m3 and a mass density (10048 kPa) of 979.7 ± 1.2 kg/m3. For the same compound, the mass density (10060 kPa) was 979.7 ± 1.2 kg/m3, the mass density (10071 kPa) was 979.8 ± 1.2 kg/m3 and the mass density (10084 kPa) was 979.7 ± 1.2 kg/m3. The mass density (10096 kPa) was 979.7 ± 1.2 kg/m3, the mass density (11088 kPa) was 980.3 ± 1.2 kg/m3 and the mass density (11101 kPa) was 980.4 ± 1.2 kg/m3. It also gave a mass density (11112 kPa) of 980.3 ± 1.2 kg/m3, a mass density (11122 kPa) of 980.3 ± 1.2 kg/m3 and a mass density (11136 kPa) of 980.4 ± 1.2 kg/m3. The mass density (11150 kPa) was 980.5 ± 1.2 kg/m3, the mass density (11155 kPa) was 980.3 ± 1.2 kg/m3 and the mass density (11157 kPa) was 980.4 ± 1.2 kg/m3. The mass density (11160 kPa) was 980.4 ± 1.2 kg/m3, the mass density (11163 kPa) was 980.4 ± 1.2 kg/m3 and the mass density (11168 kPa) was 980.4 ± 1.2 kg/m3. It also gave a mass density (11174 kPa) of 980.3 ± 1.2 kg/m3, a mass density (11186 kPa) of 980.4 ± 1.2 kg/m3 and a mass density (11198 kPa) of 980.4 ± 1.2 kg/m3. For the same compound, the mass density (11199 kPa) was 980.3 ± 1.2 kg/m3, the mass density (11200 kPa) was 980.4 ± 1.2 kg/m3 and the mass density (12660 kPa) was 981.3 ± 1.2 kg/m3. The mass density (12684 kPa) was 981.3 ± 1.2 kg/m3, the mass density (12713 kPa) was 981.5 ± 1.2 kg/m3 and the mass density (12737 kPa) was 981.5 ± 1.2 kg/m3. It also gave a mass density (12767 kPa) of 981.4 ± 1.2 kg/m3, a mass density (12791 kPa) of 981.5 ± 1.2 kg/m3 and a mass density (12819 kPa) of 981.5 ± 1.2 kg/m3. The mass density (12848 kPa) was 981.4 ± 1.2 kg/m3, the mass density (12871 kPa) was 981.5 ± 1.2 kg/m3 and the mass density (12899 kPa) was 981.4 ± 1.2 kg/m3. It also gave a mass density (15446 kPa) of 983.2 ± 1.2 kg/m3, a mass density (15470 kPa) of 983.2 ± 1.2 kg/m3 and a mass density (15500 kPa) of 983.1 ± 1.2 kg/m3. For the same compound, the mass density (16331 kPa) was 983.8 ± 1.2 kg/m3 and 983.7 ± 1.2 kg/m3, the mass density (16333 kPa) was 983.7 ± 1.2 kg/m3 and the mass density (16334 kPa) was 983.8 ± 1.2 kg/m3 and 983.7 ± 1.2 kg/m3. For the same compound, the mass density (16336 kPa) was 983.8 ± 1.2 kg/m3.
